Laboratory results as given in patent US20060252798A1, “Metal ion chelators and therapeutic use thereof” (priority 2003, published 2006).

How the values were obtained:
[1] = Maximum tolerated dose in CD2F1 hybrid mice; assay type: in vivo; details: CD2F1 mice, iv twice a day
Experimental: BALB/c and DBA/2 mice were obtained from Animal Resources Centre (University of New South Wales (UNSW), Sydney, Australia) and crossed to produce CD2F1 animals (all procedures used were approved by the Animal Ethics Committee, UNSW). Groups of eight female CD2F1 mice (8-10 weeks old) were fed and watered ad-libitum, and injected via the tail vein with compounds being studied in 30% propylene glycol in 0.9% sterile saline, twice a day, 6 h apart, 5 days/week for 2 weeks. The maximum tolerated dose (MTD) was defined as the dose at which 30% of a cohort either died or lost weight in excess of 10%.^19

[2] = test system: M109 cells; assay: Apoptosis assay by flow cytometry (Annexin V-FITC / PI), cultured M109 cells; assay type: cell-based, mouse
Experimental: Apoptotic cells were detected by a flow cytometer (FACSCalibur, Becton Dickinson, Calif., USA) using fluorescein isothiocyanate (FITC) labelled Annexin V binding to translocated plasma membrane phosphatidylserine (PS).^25 Propidium iodide (PI) was added to identify loss of cell membrane integrity, which is indicative of necrotic cells.
There was a dose-dependent increase in the percentage of apoptotic and dead cells after Dp44mT treatment (FIG. 13A). Exposure of cells to 1 μM Dp44mT caused a significant (p<0.05) increase of apoptotic and dead cells. This increase peaked at a Dp44mT concentration of 100 μM resulting in a population consisting of 40±7% apoptotic cells and 27±3% dead cells (FIG. 13A).

CN(C)C(=S)NN=C(c1ccccn1)c1ccccn1 [Dp44mT, di-2-pyridylketone 4,4-dimethyl-3-thiosemicarbazone]
maximum tolerated dose (MTD) [1]: 0.4 mg/kg
apoptotic cells ([2]; 1 μM, 12 h): 12±2%
apoptotic cells ([2]; 100 μM, 24 h): 40±7%
dead cells ([2]; 100 μM, 24 h): 27±3%
apoptotic cell numbers ([2]; 250 μM, 24 h): 20±2%
dead cell population ([2]; 250 μM, 24 h): 42±6%
